Legend:
[1] = system: S. aureus (MRSA) biofilms; test: in vitro sustained inhibition biofilm assay, bacterial; format: cell-based, Staphylococcus aureus
Protocol: In vitro biofilm formation was tested using two assays, sustained inhibition and disruption. Both assays assess biofilm formed on polystyrene plates. The first, tests the effects of amino acid solution on a developing biofilm, while the latter tests the effects of the solution on a pre-formed mature biofilm, both compared to media without supplemented amino acids.
Other amino acids in the blood of animals could combat bacterial and fungal biofilm and therefore may be useful in treating these bacterial and fungal infections that would lie on the external surfaces of infected animals such as humans and could also be used to combat these pathogens on instruments and surfaces that need to be treated. Two types of biofilm assays were performed: a sustained inhibition assay and a disruption assay. The sustained inhibition assay assessed the compound's ability to prevent biofilm development throughout all stages of biofilm formation, while the disruption assay assessed the compound's ability to break up an existing mature biofilm.
(§1) For fungal biofilm assays, all solutions were prepared in RPMI 1640 medium. All bacterial biofilm solutions were prepared in Tryptic Soy Broth (TSB), supplemented with 1% glucose (henceforth referred to as TSB-G). All subsequent procedures were performed in a manner that maintained sterility. A solution of each amino acid to be tested was prepared in weight to volume concentrations ranging from 0.1-5.0%. Amino acids were also tested in combinations. Compound solutions were homogenized with gentle agitation in the dark (4° C., 24 hours) before use.
Bacterial strains were streaked on Blood Agar plates (5% sheep blood in Tryptic Soy Agar) and incubated at 37° C. for 24 hours. A single colony from each strain to be tested was inoculated in a TSB broth and grown for 12 hours, at 37° C. shaking at 225 rpm. For the bacterial biofilm inhibition assays, 1 μL of saturated overnight cell culture was added to either 80 μL of TSB-G, or TSB-G supplemented with the amino acid compound solution to be tested, in a 384-well plate. The cells were allowed to adhere to the plate for 60 minutes at 37° C. without shaking. The media was carefully aspirated and 80 μL of TSB-G, or TSB-G supplemented with the amino acid compound solution was added to the plate. The plate was further incubated for 24 hours at 37° C. without shaking. Media was carefully aspirated and the biofilm was measured by optical density at 600 nm. Eight or twelve replicates were performed for each tested condition and the reported values are normalized to the control (TSB-G media only). For the bacterial biofilm disruption assays, 80 μL of TSB-G was added to the plate, along with 1 μL of overnight cell culture. The cells were allowed to adhere to the plate for 60 minutes at 37° C. with no shaking. The media was carefully aspirated and 80 μL of TSB-G was added to the plate. The plate was further incubated for 24 hours at 37° C. with no shaking. Media was carefully aspirated from the mature biofilm and 80 μL of TSB-G, or TSB-G supplemented with the amino acid to be tested, was gently added to the plate. The plate was further incubated for 24 hours at 37° C. without shaking. Media was aspirated and the biofilm was measured by optical density at 600 nm. Twelve replicates were performed for each tested condition and the reported values are normalized to the control (TSB-G media only).
For inhibition assay, 1 μl of overnight cell culture was added to either 80 μl of TSB-G, or TSB-G supplemented with the amino acid to be tested, in a 384-well plate. The cells were allowed to adhere to the plate for 60 minutes at 37° C. with no shaking. The media was carefully aspirated and 80 μl of TSB-G, or TSB-G supplemented with amino acid was added to the plate. The plate was further incubated for 24 hours at 37° C. with no shaking. Media was carefully aspirated and the biofilm was measured by optical density at 600 nm. […]

[2] = system: C. albicans biofilms; test: in vitro sustained inhibition biofilm assay, fungal; format: cell-based, Candida albicans; conditions: 1% amino acid, p<0.001
Protocol: Two types of biofilm assays were performed: a sustained inhibition assay and a disruption assay.
as §1
Fungal strains were streaked on Yeast Peptone Dextrose (YPD) agar plates and incubated at 30° C. for 48 hours. A single colony from each strain to be tested was inoculated into YPD broth and grown for 12 hours, at 30° C., shaking at 225 rpm. For the fungal biofilm inhibition assay, 1 μl of saturated overnight cell culture was added to either 80 μL of RPMI-1640 or RPMI-1640 supplemented with the amino acid compound solution to be tested, in a 384-well plate. […] Media was carefully aspirated and the biofilm was measured by optical density at 600 nm. Twelve replicates were performed for each tested condition and the reported values are normalized to the control (RPMI-1640 media only). For the fungal biofilm disruption assays, 80 μL of RPMI-1640 was added to the plate, along with 1 μL of overnight cell culture. […] Loosely bound cells were washed once with PBS and 80 μL of RPMI-1640 was added to the plate. […] Media was carefully aspirated from the mature biofilm and 80 μL of RPMI-1640, or RPMI-1640 supplemented with the amino acid compound solution to be tested, was gently added to the plate. […] Media was carefully aspirated and the biofilm was measured by optical density at 600 nm. Twelve replicates were performed for each tested condition and the reported values are normalized to the control (RPMI-1640 media only).
The plate was further incubated for 24 hours at 37° C. with shaking (350 rpm). Media was carefully aspirated and the biofilm was measured by optical density at 600 nm.

[3] = sustained inhibition, S. aureus, 1% amino acid, p<0.001

N[C@@H](CC(=O)O)C(=O)O [Aspartic Acid, L-aspartic acid]
Reduce B Biofilm [1, 3]: ●● (two dots [i.e. ●●] signifies major effect (greater than about 30% change)) | Reduce F Biofilm [2]: ●● (two dots [i.e. ●●] signifies major effect (greater than about 30% change))

N[C@@H](CS)C(=O)O [Cysteine, L-cysteine]
Reduce B Biofilm [1, 3]: ●● (two dots [i.e. ●●] signifies major effect (greater than about 30% change)) | Reduce F Biofilm [2]: ●● (two dots [i.e. ●●] signifies major effect (greater than about 30% change))

N[C@@H](CCC(=O)O)C(=O)O [Glutamic Acid, L-glutamic acid]
Reduce B Biofilm ([1]; MRSA): ●● (two dots [i.e. ●●] signifies major effect (greater than about 30% change)) | Reduce F Biofilm [2]: ●● (two dots [i.e. ●●] signifies major effect (greater than about 30% change))

Reference: patent US12226386B2, “Compositions and methods for treating biofilms” (The Regents of the University of California, priority 2018, dated 2025)
